Patent publication US20260109732A1, “LIPID AMINES” (ModernaTX, Inc., priority 2021, published 2026)
Structures can show the parent of a compound that is named as a salt.

What was measured:
HeLa cells [1] = assay: Luciferase Protein Expression Assay in HeLa Cells; assay type: cell-based, Human; conditions: LNPs encapsulating Luciferase mRNA, 25 ng per well, N=4 wells; 5 h serum-free then 24 h; ONE-Glo
In short: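 Luminescence output, average RLU across N=4 wells, was measured with ONE-Glo after cell lysis. Before that, HeLa cells were exposed to 25 ng/well luciferase-mRNA nanoparticles (PBS control) for 5 h serum-free, then cultured overnight (24 h) in complete MEM.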

HeLa cells [2] = assay: CFTR Protein Expression Assay in HeLa Cells; assay type: cell-based, Human; conditions: LNPs encapsulating CFTR mRNA, N=4 wells; 5 h serum-free then 24 h; immunofluorescence vs PBS control
In short: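 Readout is fold-change in per-cell CFTR immunofluorescence intensity (488 nm, confocal imaging) relative to PBS-treated cells, from 4 replicate wells. LNPs encapsulating CFTR mRNA were applied serum-free for 5 h, followed by 24 h in complete medium before PFA fixation.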

[3] = Diameter and PDI from DLS measurements of mRNA nanoparticles with lipid amines; assay type: physicochemical
In short: (§1)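 DLS gave size and PDI, and Ribogreen gave encapsulation, for luciferase- or CFTR-mRNA nanoparticles (N:P 4.93). Particles came from IL1/DSPC/cholesterol/PEG-DMG-2K mixed at pH 4, mRNA-loaded, neutralized with TRIS pH 8.12, and then treated with lipid amine SA50 in pH 7.5 buffer.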

[4] = Encapsulation of mRNA nanoparticles with lipid amines using Ribogreen assay; assay type: physicochemical
In short: as §1

[5] = CFTR mRNA nanoparticle with lipid amine
[6] = Luciferase mRNA nanoparticle modified with lipid amine

Row | Structure (SMILES) | Average Relative Light Units ± Standard Deviation (HeLa cells [1]) | Average fold-change in CFTR signal intensity per cell compared to buffer control ± standard deviation (HeLa cells [2]) | Diameter (nm) [3, 5] | PDI [3, 5] | Diameter (nm) [3, 6] | PDI [3, 6] | % Encapsulation (Ribogreen) [4, 5] | % Encapsulation (Ribogreen) [4, 6]
1 | CCC(N)CCNCCCCN(CCC(N)CC)C(=O)O[C@H]1CC[C@@]2(C)C(=CC[C@H]3[C@@H]4CC[C@H]([C@H](C)CCCC(C)C)[C@@]4(C)CC[C@@H]32)C1.Cl.Cl.Cl (stereo partly drawn) [SA127, (3S,8S,9S,10R,13R,14S,17R)-10,13-dimethyl-17-((R)-6-methylheptan-2-yl)-2,3,4,7,8,9,10,11,12,13,14,15,16,17-tetradecahydro-1H-cyclopenta[a]phenanthren-3-yl (3-aminopentyl)(4-((3-aminopentyl)amino)butyl)carbamate trihydrochloride] | 41246.9 ± 5672.4 Relative Light Units | 20.1 ± 1.9 fold-change | 74.1 nm | 0.12 | 74 nm | 0.17 | 99.5% | 99.7%
2 | CC(C)CCC[C@@H](C)[C@H]1CC[C@H]2[C@@H]3CC=C4C[C@@H](OC(=O)CCCCC(=O)N(CCCN)CCCCNCCCN)CC[C@]4(C)[C@H]3CC[C@]12C [SA89, (3S,8S,9S,10R,13R,14S,17R)-10,13-dimethyl-17-((R)-6-methylheptan-2-yl)-2,3,4,7,8,9,10,11,12,13,14,15,16,17-tetradecahydro-1H-cyclopenta[a]phenanthren-3-yl 6-((3-aminopropyl)(4-((3-aminopropyl)amino)butyl)amino)-6-oxohexanoate trihydrochloride] | 8209.2 ± 4138.5 Relative Light Units | 3.7 ± 0.4 fold-change | 86.5 nm | 0.15 | 77 nm | 0.16 | 98.6% | 99.7%
3 | CC(C)CCC[C@@H](C)[C@H]1CC[C@H]2[C@@H]3CC=C4C[C@@H](SSCCC(=O)N(CCCC(C)(C)N)CCC(C)(C)N)CC[C@]4(C)[C@H]3CC[C@]12C [SA145, N-(3-amino-3-methylbutyl)-N-(4-amino-4-methylpentyl)-3-(((3S,8S,9S,10R,13R,14S,17R)-10,13-dimethyl-17-((R)-6-methylheptan-2-yl)-2,3,4,7,8,9,10,11,12,13,14,15,16,17-tetradecahydro-1H-cyclopenta[a]phenanthren-3-yl)disulfaneyl)propanamide dihydrochloride] | 36033.7 ± 4254.5 Relative Light Units | 14.4 ± 0.6 fold-change | 71.8 nm | 0.14 | 77 nm | 0.17 | 99.8% | 99.7%
4 | CC[C@H](CC[C@@H](C)[C@H]1CC[C@H]2[C@@H]3CC=C4C[C@@H](OC(=O)N(CCCCNCCC(C)(C)N)CCC(C)(C)N)CC[C@]4(C)[C@H]3CC[C@]12C)C(C)C [SA114, (3S,8S,9S,10R,13R,14S,17R)-17-((2R,5R)-5-ethyl-6-methylheptan-2-yl)-10,13-dimethyl-2,3,4,7,8,9,10,11,12,13,14,15,16,17-tetradecahydro-1H-cyclopenta[a]phenanthren-3-yl (3-amino-3-methylbutyl)(4-((3-amino-3-methylbutyl)amino)butyl)carbamate trihydrochloride] | 22594.3 ± 9128.4 Relative Light Units | 6.3 ± 1.3 fold-change | 85.9 nm | 0.13 | 75 nm | 0.18 | 98.5% | 99.7%
5 | CC(C)CCC[C@@H](C)[C@H]1CC[C@H]2[C@@H]3CC=C4C[C@@H](SSCCC(=O)N(CCCCNCCC(C)(C)N)CCC(C)(C)N)CC[C@]4(C)[C@H]3CC[C@]12C.Cl.Cl.Cl [SA138, N-(3-amino-3-methylbutyl)-N-(4-((3-amino-3-methylbutyl)amino)butyl)-3-(((3S,8S,9S,10R,13R,14S,17R)-10,13-dimethyl-17-((R)-6-methylheptan-2-yl)-2,3,4,7,8,9,10,11,12,13,14,15,16,17-tetradecahydro-1H-cyclopenta[a]phenanthren-3-yl)disulfaneyl)propanamide trihydrochloride] | 22039.8 ± 8550.1 Relative Light Units | 12.1 ± 1.1 fold-change | 89.6 nm | 0.12 | 72 nm | 0.19 | 96.4% | 99.2%
6 | CC(C)CCC[C@@H](C)[C@H]1CC[C@H]2[C@@H]3CC=C4C[C@@H](OC(=O)[C@H](CCCN)NCCCCCCN)CC[C@]4(C)[C@H]3CC[C@]12C.Cl.Cl.Cl [SA132, (3S,8S,9S,10R,13R,14S,17R)-10,13-dimethyl-17-((R)-6-methylheptan-2-yl)-2,3,4,7,8,9,10,11,12,13,14,15,16,17-tetradecahydro-1H-cyclopenta[a]phenanthren-3-yl (S)-5-amino-2-((6-aminohexyl)amino)pentanoate trihydrochloride] | 131.6 ± 15.5 Relative Light Units | 1.6 ± 0.1 fold-change | 84.2 nm | 0.15 | 81 nm | 0.41 | 96.8% | 99.3%
7 | CC(C)CCC[C@@H](C)[C@H]1CC[C@H]2[C@@H]3CC=C4C[C@@H](OC(=O)N(CCCCNCC(F)(F)CN)CC(F)(F)CN)CC[C@]4(C)[C@H]3CC[C@]12C [SA79, (3S,8S,9S,10R,13R,14S,17R)-10,13-dimethyl-17-((R)-6-methylheptan-2-yl)-2,3,4,7,8,9,10,11,12,13,14,15,16,17-tetradecahydro-1H-cyclopenta[a]phenanthren-3-yl (3-amino-2,2-difluoropropyl)(4-((3-amino-2,2-difluoropropyl)amino)butyl)carbamate trihydrochloride] | 105.1 ± 20 Relative Light Units | 0.8 ± 0 fold-change | 78.4 nm | 0.13 | 74 nm | 0.18 | 97.9% | 97.0%
